Columns and labels:
recombinant human DHODH = molecular target: T1, recombinant human DHODH (Homo sapiens, UniProt Q02127); assay: DHODH enzyme reaction inhibition test (DCIP-coupled assay); format: biochemical; settings: recombinant human DHODH 0.175 μg/mL, DCIP absorbance 600 nm, 50 minutes, pH 8.0; read-out: Enzyme reaction inhibitory effect (IC50)
T1 construct: DHODH, 31-395aa, Human, His tag, E. coli, ATGP1615; His tag; purchased ATGen Co. Ltd. ATGP1615; host or cells: E. coli
Description: The DHODH enzyme assay was carried out with reference to “Benjamin Bader, Wolfgang Knecht, Markus Fries, and Monika Loffler, Expression, Purification, and Characterization of Histidine-Tagged Rat and Human Flavoenzyme Dihydroorotate Dehydrogenase, Protein Expression and Purification, 1998, 13, 414-422.”
The DHODH activity was evaluated using an enzyme assay system that is coupled with an assay in which a blue coloring agent 2,6-dichlorophenolindophenol (DCIP, available from MP Biomedicals, LLC, MP150118) is quenched. Purified recombinant human DHODH (DHODH, 31-395aa, Human, His tag, E. coli, ATGP1615) was purchased from ATGen Co. Ltd. The enzyme assay was carried out in a 384-well plate using a buffer solution containing 100 mmol/L Hepes (available from Dojindo Laboratories, 342-01375), 400 mmol/L NaCl (available from FUJIFILM Wako Pure Chemical Corporation, 191-01665), 10% Glycerol (available from FUJIFILM Wako Pure Chemical Corporation, 075-00616), 0.05% Triton X-100 (available from Sigma-Aldrich Co., LLC, T8787-100ML), 0.2 mmol/L Ubiquinone-10 (available from FUJIFILM Wako Pure Chemical Corporation, 216-00761), 0.1 mmol/L DHO (L-dihydroorotic acid, available from Sigma-Aldrich Co., LLC, D7128), 0.5% DMSO (dimethylsulfoxide, available from FUJIFILM Wako Pure Chemical Corporation, 047-29353), 0.175 μg/mL DHODH, and 0.12 mmol/L DCIP and having a pH adjusted to 8.0 by adding 5 mol/L potassium hydroxide (available from FUJIFILM Wako Pure Chemical Corporation, 168-21815). A test compound with a predetermined concentration was added using Biomek NX (available from Beckman Coulter Inc.), and the enzyme reaction was started by adding the substrate. The enzyme activity was assessed by measuring the decrease in DCIP absorbance (600 nm) for 50 minutes using an EnVision plate-reading spectrophotometer (available from PerkinElmer, Inc.).
The enzyme reaction inhibition rate at each test compound concentration was determined, and the 50% enzyme reaction inhibition concentration [IC50 (nmol/L)] was calculated using XLfit. Enzyme reaction inhibition rate (%)=(amount of luminescence in test compound-added well)/(amount of luminescence in DMSO-added well)×100
The abbreviations in the table have the following meanings. • A: IC50 value<10 nmol/L • B: 10 nmol/L≤IC50 value<100 nmol/L • C: 100 nmol/L≤IC50 value

[1] = system: human myeloid leukemia cell line HL60; assay: Cell growth test, HL60 (CellTiter-Glo); format: cell-based; settings: HL-60, 72 h, HL60 cells, 3 days, CellTiter-Glo luminescence, read-out: Cell growth inhibitory effect (GI50)
Description: The cell growth test was carried out using the human myeloid leukemia cell line HL60 (available from ATCC, CRL-240). As a culture medium of HL60 cells, RPMI 1640 (available from FUJIFILM Wako Pure Chemical Corporation, 189-02025) supplemented with 10% fetal bovine serum (available from Thermo Fisher Scientific, Inc., 10437-028), and 1% penicillin-streptomycin (10,000 U/mL, available from Thermo Fisher Scientific, Inc., 15140-122) was used. HL60 cells were seeded on a 384-well plate (available from Corning Inc., 4588) at a cell density of 1×10^3 cells/20 μL/well. After culturing overnight, 5 μL of the test compound having a predetermined concentration was added, and 3 days later, 25 μL of CellTiter-Glo (registered trademark) Luminescent Cell Viability Assay (available from Promega Corporation, G7573) was added, and then the amount of luminescence was measured using an EnVision plate reader (available from PerkinElmer, Inc.). Since the amount of luminescence is proportional to the intracellular concentration of adenosine triphosphate (ATP), the amount of luminescence was used as an indicator of the number of viable cells. The growth inhibitory concentration for each test compound concentration was calculated by the following expression.
The growth inhibition rate at each test compound concentration was determined, and the 50% growth inhibitory concentration [GI50 (nmol/L)] was calculated using XLfit. Growth inhibition rate (%)=(amount of luminescence in test compound-added well)/(amount of luminescence in DMSO-added well)×100
The abbreviations in the table have the following meanings. • A: GI50 value<100 nmol/L • B: 100 nmol/L≤GI50 value<1,000 nmol/L • C: 1,000 nmol/L≤GI50 value

T1 sequence (Q02127 31-395): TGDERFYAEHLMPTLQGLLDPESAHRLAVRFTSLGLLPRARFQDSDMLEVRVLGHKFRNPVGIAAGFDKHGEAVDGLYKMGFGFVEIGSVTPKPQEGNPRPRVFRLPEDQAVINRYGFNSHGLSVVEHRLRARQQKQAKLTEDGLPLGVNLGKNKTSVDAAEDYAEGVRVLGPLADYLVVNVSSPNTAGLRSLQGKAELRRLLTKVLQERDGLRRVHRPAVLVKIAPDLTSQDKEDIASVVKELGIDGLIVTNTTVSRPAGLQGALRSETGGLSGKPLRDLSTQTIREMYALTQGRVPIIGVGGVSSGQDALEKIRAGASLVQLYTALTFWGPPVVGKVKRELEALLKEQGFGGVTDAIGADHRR

Structure (SMILES)	IC50 (recombinant human DHODH)	GI50 [1]
CN(C)S(=O)(=O)NC(=O)c1nc(C2CC2)cnc1Nc1cccc(C2=CCOCC2)c1OCC(F)(F)F [Example 3-11]	≥ 100 nM	≥ 1000 nM
CONC(=O)c1nc(C2CC2)cnc1Nc1cccc(C2CCOCC2)c1O[C@@H](C)C(F)(F)F [Example 3-12]	10 to 100 nM	100 to 1000 nM
C[C@H](Oc1c(Nc2ncc(C3CC3)nc2C(=O)NS(C)(=O)=O)cccc1C1CCOCC1)C(F)(F)F [Example 3-13]	10 to 100 nM	100 to 1000 nM
Cc1ccc(-c2cccc(Nc3ncc(C4CC4)nc3C(=O)NS(C)(=O)=O)c2OCC(F)(F)F)c(C)n1 [Example 3-15]	10 to 100 nM	100 to 1000 nM
CCS(=O)(=O)NC(=O)c1nc(C2CC2)cnc1Nc1cccc(C2=CCOCC2)c1OCC(F)(F)F [Example 3-17]	10 to 100 nM	≥ 1000 nM
O=C(NS(=O)(=O)C(F)(F)F)c1nc(C2CC2)cnc1Nc1cccc(C2=CCOCC2)c1OCC(F)(F)F [Example 3-18]	10 to 100 nM	≥ 1000 nM
COS(=O)(=O)NC(=O)c1nc(C2CC2)cnc1Nc1cccc(C2=CCOCC2)c1OCC(F)(F)F [Example 3-19]	10 to 100 nM	100 to 1000 nM
CNS(=O)(=O)NC(=O)c1nc(C2CC2)cnc1Nc1cccc(C2=CCOCC2)c1OCC(F)(F)F [Example 3-20]	10 to 100 nM	100 to 1000 nM
O=C(NS(=O)(=O)C1CC1)c1nc(C2CC2)cnc1Nc1cccc(C2=CCOCC2)c1OCC(F)(F)F [Example 3-21]	10 to 100 nM	≥ 1000 nM
C[C@H](Oc1c(Nc2ccc(C3CC3)cc2C(=O)NS(C)(=O)=O)cncc1C1=CCOCC1)C(F)(F)F [Example 3-25]	10 to 100 nM	100 to 1000 nM
C[C@H](Oc1c(Nc2ncc(C3CC3)nc2C(=O)NS(C)(=O)=O)cccc1C1=CCOCC1)C(F)(F)F [Example 3-32]	< 10 nM	< 100 nM
N#CNC(=O)c1nc(C2CC2)cnc1Nc1cccc(-c2ccc(C#N)cc2)c1OCC(F)(F)F [Example 3-33]	< 10 nM	< 100 nM
CS(=O)(=O)NC(=O)c1cc(C2CC2)cnc1Nc1cccc(C2CCOCC2)c1OCC(F)(F)F [Example 3-34]	< 10 nM	< 100 nM
NS(=O)(=O)NC(=O)c1cc(C2CC2)cnc1Nc1cccc(C2CCOCC2)c1OCC(F)(F)F [Example 3-35]	< 10 nM	< 100 nM
CS(=O)(=O)NC(=O)c1cc(C2CC2)cnc1Nc1cccc(-c2ccc(C#N)cc2)c1OCC(F)(F)F [Example 3-36]	< 10 nM	< 100 nM
N#Cc1ccc(-c2cccc(Nc3ncc(C4CC4)cc3C(=O)NS(N)(=O)=O)c2OCC(F)(F)F)cc1 [Example 3-37]	< 10 nM	< 100 nM
N#CNC(=O)c1nc(C2CC2)cnc1Nc1cc(F)cc(C2=CCOCC2)c1OCC(F)(F)F [Example 3-38]	< 10 nM	< 100 nM
N#CNC(=O)c1cc(C2CC2)cnc1Nc1cccc(-c2ccc(C#N)cc2)c1OCC(F)(F)F [Example 3-39]	< 10 nM	< 100 nM
CS(=O)(=O)NC(=O)c1cc(C2CC2)cnc1Nc1cc(F)cc(C2CCOCC2)c1OCC(F)(F)F [Example 3-42]	< 10 nM	< 100 nM
CS(=O)(=O)NC(=O)c1nc(C2CC2)cnc1Nc1cccc(-c2cccc(C#N)c2)c1OCC(F)(F)F [Example 3-45]	< 10 nM	< 100 nM
CCc1c(Nc2ncc(C3CC3)cc2C(=O)NS(C)(=O)=O)cccc1C1CCOCC1 [Example 3-47]	< 10 nM	100 to 1000 nM
CCc1c(Nc2ncc(C3CC3)nc2C(=O)NS(C)(=O)=O)cccc1C1CCOCC1 [Example 3-48]	10 to 100 nM	100 to 1000 nM
CS(=O)(=O)NC(=O)c1nc(C2CC2)cnc1Nc1cccc(C2CCOCC2)c1OC(F)F [Example 3-49]	< 10 nM	< 100 nM
NS(=O)(=O)NC(=O)c1nc(C2CC2)cnc1Nc1cccc(C2CCOCC2)c1OC(F)F [Example 3-50]	< 10 nM	< 100 nM
CS(=O)(=O)NC(=O)c1nc(C2CC2)cnc1Nc1cccc(-c2ccc(C#N)cc2)c1OC(F)F [Example 3-51]	< 10 nM	100 to 1000 nM
N#Cc1ccc(-c2cccc(Nc3ncc(C4CC4)nc3C(=O)NS(N)(=O)=O)c2OC(F)F)cc1 [Example 3-52]	10 to 100 nM	100 to 1000 nM
NS(=O)(=O)NC(=O)c1nc(C2CC2)cnc1Nc1cc(F)cc(C2CCOCC2)c1OC(F)F [Example 3-53]	< 10 nM	< 100 nM

Next, values leading:

IC50 (recombinant human DHODH)	GI50 [1]	Structure (SMILES)
< 10 nM	< 100 nM	CCOc1c(Nc2ncc(C3CC3)cc2C(=O)O)ccc(F)c1C1=CCOCC1 [Example 2-15]
< 10 nM	100 to 1000 nM	O=C(O)c1cc(C2CC2)ncc1Nc1cccc(C2=CCOCC2)c1OCC(F)(F)F [Example 2-16]
< 10 nM	< 100 nM	N#CNC(=O)c1nc(C2CC2)cnc1Nc1cccc(C2=CCOCC2)c1OCC(F)(F)F [Example 3-1]
< 10 nM	≥ 1000 nM	N#CNC(=O)c1cc(C2CC2)ccc1Nc1cncc(C2=CCOCC2)c1OCC(F)(F)F [Example 3-2]
< 10 nM	< 100 nM	CONC(=O)c1nc(C2CC2)cnc1Nc1cccc(C2=CCOCC2)c1OCC(F)(F)F [Example 3-5]
< 10 nM	< 100 nM	N#CNC(=O)c1cc(C2CC2)cnc1Nc1cccc(C2CCOCC2)c1OCC(F)(F)F [Example 3-6]
< 10 nM	100 to 1000 nM	C[C@H](Oc1c(Nc2ncc(C3CC3)nc2C(=O)NS(N)(=O)=O)cccc1C1CCOCC1)C(F)(F)F [Example 3-7]
< 10 nM	< 100 nM	NS(=O)(=O)NC(=O)c1nc(C2CC2)cnc1Nc1cccc(C2=CCOCC2)c1OCC(F)(F)F [Example 3-10]
< 10 nM	< 100 nM	C[C@H](Oc1c(Nc2ncc(C3CC3)nc2C(=O)NC#N)cccc1C1CCOCC1)C(F)(F)F [Example 3-14]
< 10 nM	< 100 nM	Cc1cc(C#N)ccc1-c1cccc(Nc2ncc(C3CC3)nc2C(=O)NS(C)(=O)=O)c1OCC(F)(F)F [Example 3-16]
< 10 nM	< 100 nM	CS(=O)(=O)NC(=O)c1nc(C2CC2)cnc1Nc1cccc(-c2ccc(C#N)cc2)c1OCC(F)(F)F [Example 3-23]
< 10 nM	< 100 nM	CS(=O)(=O)NC(=O)c1cc(C2CC2)cnc1Nc1cccc(C2=CCOCC2)c1OCC(F)(F)F [Example 3-24]
< 10 nM	< 100 nM	CCCc1c(Nc2ncc(C3CC3)nc2C(=O)NS(N)(=O)=O)cccc1C1CCOCC1 [Example 3-26]
< 10 nM	< 100 nM	C[C@H](Oc1c(Nc2ncc(C3CC3)nc2C(=O)NS(N)(=O)=O)cccc1C1=CCOCC1)C(F)(F)F [Example 3-27]
< 10 nM	< 100 nM	N#CNC(=O)c1nc(C2CC2)cnc1Nc1cccc(C2CCOCC2)c1OCC(F)(F)F [Example 3-29]
< 10 nM	< 100 nM	C[C@H](Oc1c(Nc2ncc(C3CC3)nc2C(=O)NC#N)cccc1C1=CCOCC1)C(F)(F)F [Example 3-31]
